Experimental data reported in patent publication US20090017070A1, “In vitro model for hepatitis c virion production” (priority 2004, published 2009).

Legend:
HCV = settings: HCV-infected individuals treated with IFN; cited from earlier work
[1] = tested on: HCV (JFH-1, genotype 2a) in Huh7 cells; assay: Interferon treatment of HCV.JFH1-Rbz transfected Huh7 cells, viral production by HCV core Ag level in the medium; type: cell-based, Hepatitis C virus; settings: treated with interferon one day after transfection, HCV core Ag level in medium (FIG. 13B)
Description: FIG. 13. Production of infectious HCV in culture. (A). Full-length genomic cDNAs of HCV genotypes 1a (H77), 2b (J6), and 2a (JFH-1) were cloned into the HCV-ribozyme construct as described in FIG. 7. The constructs and the pTHr plasmid containing the CG1b HCV genome as described above were transfected into Huh7 cells and tested for virus production in the medium by using HCV core Ag ELISA. (B) HCV.JFH1-Rbz construct was transfected to Huh7 cells and treated with interferon one day after transfection. Viral production was monitored by measurement of HCV core Ag level in the medium. (C) Long-term culture of HCV.JFH1.Rbz transfected Huh7 cells were maintained with serial passage for the indicated duration. Culture medium was harvested at indicated times for HCV core Ag level and HCV RNA titer. […] Multiple foci of cells with positive intracellular staining were detected.
HCV RNA, Protein Quantitation, and RACE. HCV RNA level was quantitated by using the TaqMan real-time PCR method as previously described (Thomson, M. et al. 2001 Gastroenterology 121:1226-33). […] The core protein was quantitated by using the HCV core ELISA kits, which were provided by S. Yagi (Advanced Life Technology, Saitama, Japan) and used as previously described (Tanaka, E. et al. 2000 Hepatology 32: 388-93). […]

interferon-alfa
Proportion of those treated showing a sustained response as evidenced by lack of circulating HCV RNA (HCV): 10-20% | Sensitivity of viral replication to interferon-alfa treatment [1]: sensitive
